Experimental data published in patent US6355799B1, “Substituted benzene compounds, process for their preparation, and herbicidal and defoliant compositions containing them” (ISK Americas Incorporated, priority 1997, dated 2002).

How the values were obtained:
Type in all cases: in vivo
[1] = test system: redroot pigweed (Amaranthus retroflexus, AMARE); assay: Pre-emerge test, greenhouse herbicide activity screening; settings: pre-emerge; for Pre-emerge Herbicidal Activity AMARE (phytotoxicity rating, scale 0-100): rated 14 days after application, 0 = no damage, 100 = complete death; for Pre-emerge Herbicidal Activity AMARE: phytotoxicity rating 0-100 at 14 days after application
In short: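 Rating: 0–100 visual injury, 14 DAA. Application: acetone, 187 l/ha, 15–1000 g ai/ha, flat-fan track sprayer with nozzle 40–45 cm above soil or canopy. Post-emerge runs used 0.25% v/v surfactant on 2–3 leaf plants.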

[2] = test system: barnyardgrass (Echinochloa crus-galli, ECHCG); assay: as above; settings: pre-emerge; for Pre-emerge Herbicidal Activity ECHCG (phytotoxicity rating, scale 0-100): rated 14 days after application, 0 = no damage, 100 = complete death; for Pre-emerge Herbicidal Activity ECHCG: phytotoxicity rating 0-100 at 14 days after application
In short: (§1)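 Compounds in acetone were track-sprayed at 187 l/ha, 15–1000 g ai/ha, onto sandy loam pots. Pre-emerge seeds were sown one day before spraying, with surface watering afterwards. Post-emerge plants were at the 2–3 leaf stage and sprayed with 0.25% v/v non-ionic surfactant. Injury was rated 0–100 at 14 days.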

[3] = test system: green foxtail (Setaria viridis, SETVI); assay: as above; settings: pre-emerge; for Pre-emerge Herbicidal Activity SETVI (phytotoxicity rating, scale 0-100): rated 14 days after application, 0 = no damage, 100 = complete death; for Pre-emerge Herbicidal Activity SETVI: phytotoxicity rating 0-100 at 14 days after application
In short: as §1

[4] = test system: ivyleaf morningglory (Ipomoea hederacea, IPOHE); assay: as above; settings: pre-emerge; for Pre-emerge Herbicidal Activity IPOHE (phytotoxicity rating, scale 0-100): rated 14 days after application, 0 = no damage, 100 = complete death; for Pre-emerge Herbicidal Activity IPOHE: phytotoxicity rating 0-100 at 14 days after application
In short: as §1

[5] = test system: johnsongrass (Sorghum halepense, SORHA); assay: as above; settings: pre-emerge; for Pre-emerge Herbicidal Activity SORHA (phytotoxicity rating, scale 0-100): rated 14 days after application, 0 = no damage, 100 = complete death; for Pre-emerge Herbicidal Activity SORHA: phytotoxicity rating 0-100 at 14 days after application
In short: as §1

[6] = test system: lambsquarters (Chenopodium album, CHEAL); assay: as above; settings: pre-emerge; for Pre-emerge Herbicidal Activity CHEAL (phytotoxicity rating, scale 0-100): rated 14 days after application, 0 = no damage, 100 = complete death; for Pre-emerge Herbicidal Activity CHEAL: phytotoxicity rating 0-100 at 14 days after application
In short: as §1

[7] = test system: large crabgrass (Digitaria sanguinalis, DIGSA); assay: as above; settings: pre-emerge; for Pre-emerge Herbicidal Activity DIGSA (phytotoxicity rating, scale 0-100): rated 14 days after application, 0 = no damage, 100 = complete death; for Pre-emerge Herbicidal Activity DIGSA: phytotoxicity rating 0-100 at 14 days after application
In short: as §1

[8] = test system: sicklepod (Cassia obtusifolia, CASOB); assay: as above; settings: pre-emerge; for Pre-emerge Herbicidal Activity CASOB (phytotoxicity rating, scale 0-100): rated 14 days after application, 0 = no damage, 100 = complete death; for Pre-emerge Herbicidal Activity CASOB: phytotoxicity rating 0-100 at 14 days after application
In short: as §1

[9] = test system: velvetleaf (Abutilon theophrasti, ABUTH); assay: as above; settings: pre-emerge; for Pre-emerge Herbicidal Activity ABUTH (phytotoxicity rating, scale 0-100): rated 14 days after application, 0 = no damage, 100 = complete death; for Pre-emerge Herbicidal Activity ABUTH: phytotoxicity rating 0-100 at 14 days after application
In short: as §1

[10] = test system: field corn (Zea mays L., var. Dekalb 535, CORN); assay: Pre-emerge test, crop safety; settings: pre-emerge; for Pre-emerge crop damage CORN (phytotoxicity rating, scale 0-100): rated 14 days after application, 0 = no damage, 100 = complete death; for Pre-emerge Herbicidal Activity CORN: crop damage, phytotoxicity rating 0-100 at 14 days after application
In short: (§2)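 Sandy loam pots; pre-emerge: sown 1 d pre-spray, surface-watered after, then bottom-watered. Post-emerge: sown 8–21 d before, 2–3 leaf stage, + 0.25% v/v NIS, bottom-watered. Acetone, 187 l/ha track spray, 15–1000 g ai/ha. 0–100 injury score, day 14.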

[11] = test system: upland rice (Oryza sp., var. Tebonnet, RICE); assay: Pre-emerge test, crop safety; settings: pre-emerge; for Pre-emerge crop damage RICE (phytotoxicity rating, scale 0-100): rated 14 days after application, 0 = no damage, 100 = complete death; for Pre-emerge Herbicidal Activity RICE: crop damage, phytotoxicity rating 0-100 at 14 days after application
In short: as §2

[12] = test system: barnyardgrass (Echinochloa crus-galli, ECHCG); assay: Post-emerge test, greenhouse herbicide activity screening
In short: (§3)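 Compounds in acetone were track-sprayed at 15-1000 g ai/ha (187 l/ha) on sandy loam pots: pre-emerge one day after seeding, post-emerge at 2-3 leaf stage with 0.25% v/v non-ionic surfactant. Phytotoxicity was rated 14 days later on a 0 (no damage) to 100 (complete death) scale.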

[13] = test system: green foxtail (Setaria viridis, SETVI); assay: as above
In short: as §3

[14] = test system: ivyleaf morningglory (Ipomoea hederacea, IPOHE); assay: as above
In short: as §3

[15] = test system: johnsongrass (Sorghum halepense, SORHA); assay: as above
In short: as §3

[16] = test system: lambsquarters (Chenopodium album, CHEAL); assay: as above
In short: as §3

[17] = test system: large crabgrass (Digitaria sanguinalis, DIGSA); assay: as above
In short: as §3

[18] = test system: redroot pigweed (Amaranthus retroflexus, AMARE); assay: as above
In short: as §3

[19] = test system: sicklepod (Cassia obtusifolia, CASOB); assay: as above
In short: as §3

[20] = test system: velvetleaf (Abutilon theophrasti, ABUTH); assay: as above
In short: as §3

[21] = test system: field corn (Zea mays L., var. Dekalb 535, CORN); assay: Post-emerge test, crop safety; settings: for Post-emerge Herbicidal Activity CORN (crop damage): phytotoxicity rating 0-100 (0 no damage, 100 complete death), 14 days after application; for Post-emerge Herbicidal Activity CORN: crop damage rating 0-100 at 14 days after application
In short: as §1

[22] = test system: upland rice (Oryza sp., var. Tebonnet, RICE); assay: Post-emerge test, crop safety; settings: for Post-emerge Herbicidal Activity RICE (crop damage): phytotoxicity rating 0-100 (0 no damage, 100 complete death), 14 days after application; for Post-emerge Herbicidal Activity RICE: crop damage rating 0-100 at 14 days after application
In short: as §1

[23] = 63 g ai/ha, phytotoxicity rating 0-100 (0 no damage, 100 complete death), 14 days after application
[24] = 250 g ai/ha, phytotoxicity rating 0-100 (0 no damage, 100 complete death), 14 days after application
[25] = post-emerge, 63 g ai/ha, phytotoxicity rating 0-100 at 14 days after application
[26] = post-emerge, 250 g ai/ha, phytotoxicity rating 0-100 at 14 days after application

CCOC(=O)COc1c(Cl)cc(F)c(-n2c(=O)cc(C(F)(F)F)n(C)c2=O)c1N [Compound 1-59]
Pre-emerge Herbicidal Activity AMARE (phytotoxicity rating, scale 0-100) ([1]; 63 g ai/ha): 100
Pre-emerge Herbicidal Activity AMARE (phytotoxicity rating, scale 0-100) ([1]; 250 g ai/ha): 100
Pre-emerge Herbicidal Activity ECHCG (phytotoxicity rating, scale 0-100) ([2]; 63 g ai/ha): 0
Pre-emerge Herbicidal Activity ECHCG (phytotoxicity rating, scale 0-100) ([2]; 250 g ai/ha): 70
Pre-emerge Herbicidal Activity SETVI (phytotoxicity rating, scale 0-100) ([3]; 63 g ai/ha): 30
Pre-emerge Herbicidal Activity SETVI (phytotoxicity rating, scale 0-100) ([3]; 250 g ai/ha): 90
Pre-emerge Herbicidal Activity IPOHE (phytotoxicity rating, scale 0-100) ([4]; 63 g ai/ha): 100
Pre-emerge Herbicidal Activity IPOHE (phytotoxicity rating, scale 0-100) ([4]; 250 g ai/ha): 100
Pre-emerge Herbicidal Activity SORHA (phytotoxicity rating, scale 0-100) ([5]; 63 g ai/ha): 30
Pre-emerge Herbicidal Activity SORHA (phytotoxicity rating, scale 0-100) ([5]; 250 g ai/ha): 85
Pre-emerge Herbicidal Activity CHEAL (phytotoxicity rating, scale 0-100) ([6]; 63 g ai/ha): 100
Pre-emerge Herbicidal Activity CHEAL (phytotoxicity rating, scale 0-100) ([6]; 250 g ai/ha): 100
Pre-emerge Herbicidal Activity DIGSA (phytotoxicity rating, scale 0-100) ([7]; 63 g ai/ha): 30
Pre-emerge Herbicidal Activity DIGSA (phytotoxicity rating, scale 0-100) ([7]; 250 g ai/ha): 90
Pre-emerge Herbicidal Activity CASOB (phytotoxicity rating, scale 0-100) ([8]; 63 g ai/ha): 30
Pre-emerge Herbicidal Activity CASOB (phytotoxicity rating, scale 0-100) ([8]; 250 g ai/ha): 80
Pre-emerge Herbicidal Activity ABUTH (phytotoxicity rating, scale 0-100) ([9]; 63 g ai/ha): 100
Pre-emerge Herbicidal Activity ABUTH (phytotoxicity rating, scale 0-100) ([9]; 250 g ai/ha): 100
Pre-emerge crop damage CORN (phytotoxicity rating, scale 0-100) ([10]; 63 g ai/ha): 30
Pre-emerge crop damage CORN (phytotoxicity rating, scale 0-100) ([10]; 250 g ai/ha): 90
Pre-emerge crop damage RICE (phytotoxicity rating, scale 0-100) ([11]; 63 g ai/ha): 30
Pre-emerge crop damage RICE (phytotoxicity rating, scale 0-100) ([11]; 250 g ai/ha): 70
Post-emerge Herbicidal Activity ECHCG [12, 23]: 30
Post-emerge Herbicidal Activity ECHCG [12, 24]: 80
Post-emerge Herbicidal Activity SETVI [13, 23]: 10
Post-emerge Herbicidal Activity SETVI [13, 24]: 70
Post-emerge Herbicidal Activity IPOHE [14, 23]: 100
Post-emerge Herbicidal Activity IPOHE [14, 24]: 100
Post-emerge Herbicidal Activity SORHA [15, 23]: 10
Post-emerge Herbicidal Activity SORHA [15, 24]: 50
Post-emerge Herbicidal Activity CHEAL [16, 23]: 100
Post-emerge Herbicidal Activity CHEAL [16, 24]: 100
Post-emerge Herbicidal Activity DIGSA [17, 23]: 0
Post-emerge Herbicidal Activity DIGSA [17, 24]: 40
Post-emerge Herbicidal Activity AMARE [18, 23]: 95
Post-emerge Herbicidal Activity AMARE [18, 24]: 100
Post-emerge Herbicidal Activity CASOB [19, 23]: 40
Post-emerge Herbicidal Activity CASOB [19, 24]: 100
Post-emerge Herbicidal Activity ABUTH [20, 23]: 100
Post-emerge Herbicidal Activity ABUTH [20, 24]: 100
Post-emerge Herbicidal Activity CORN (crop damage) ([21]; 63 g ai/ha): 45
Post-emerge Herbicidal Activity CORN (crop damage) ([21]; 250 g ai/ha): 80
Post-emerge Herbicidal Activity RICE (crop damage) ([22]; 63 g ai/ha): 30
Post-emerge Herbicidal Activity RICE (crop damage) ([22]; 250 g ai/ha): 60

COc1c(Cl)cc(F)c(-n2c(=O)n3n(c2=O)CCCC3)c1NC(=O)c1ccc(F)cc1F [9-16]
Pre-emerge Herbicidal Activity AMARE ([1]; rate 63 g ai/ha): 70
Pre-emerge Herbicidal Activity AMARE ([1]; rate 250 g ai/ha): 100
Pre-emerge Herbicidal Activity ECHCG ([2]; rate 63 g ai/ha): 0
Pre-emerge Herbicidal Activity ECHCG ([2]; rate 250 g ai/ha): 40
Pre-emerge Herbicidal Activity SETVI ([3]; rate 63 g ai/ha): 39
Pre-emerge Herbicidal Activity SETVI ([3]; rate 250 g ai/ha): 70
Pre-emerge Herbicidal Activity IPOHE ([4]; rate 63 g ai/ha): 70
Pre-emerge Herbicidal Activity IPOHE ([4]; rate 250 g ai/ha): 70
Pre-emerge Herbicidal Activity SORHA ([5]; rate 63 g ai/ha): 10
Pre-emerge Herbicidal Activity SORHA ([5]; rate 250 g ai/ha): 40
Pre-emerge Herbicidal Activity CHEAL ([6]; rate 63 g ai/ha): 100
Pre-emerge Herbicidal Activity CHEAL ([6]; rate 250 g ai/ha): 100
Pre-emerge Herbicidal Activity DIGSA ([7]; rate 63 g ai/ha): 10
Pre-emerge Herbicidal Activity DIGSA ([7]; rate 250 g ai/ha): 40
Pre-emerge Herbicidal Activity CASOB ([8]; rate 63 g ai/ha): 20
Pre-emerge Herbicidal Activity CASOB ([8]; rate 250 g ai/ha): 60
Pre-emerge Herbicidal Activity ABUTH ([9]; rate 63 g ai/ha): 100
Pre-emerge Herbicidal Activity ABUTH ([9]; rate 250 g ai/ha): 100
Pre-emerge Herbicidal Activity CORN ([10]; rate 63 g ai/ha): 0
Pre-emerge Herbicidal Activity CORN ([10]; rate 250 g ai/ha): 90
Pre-emerge Herbicidal Activity RICE ([11]; rate 63 g ai/ha): 80
Pre-emerge Herbicidal Activity RICE ([11]; rate 250 g ai/ha): 90
Post-emerge Herbicidal Activity ECHCG [12, 25]: 0
Post-emerge Herbicidal Activity ECHCG [12, 26]: 10
Post-emerge Herbicidal Activity SETVI [13, 25]: 0
Post-emerge Herbicidal Activity SETVI [13, 26]: 20
Post-emerge Herbicidal Activity IPOHE [14, 25]: 90
Post-emerge Herbicidal Activity IPOHE [14, 26]: 100
Post-emerge Herbicidal Activity SORHA [15, 25]: 0
Post-emerge Herbicidal Activity SORHA [15, 26]: 0
Post-emerge Herbicidal Activity CHEAL [16, 25]: 65
Post-emerge Herbicidal Activity CHEAL [16, 26]: 80
Post-emerge Herbicidal Activity DIGSA [17, 25]: 10
Post-emerge Herbicidal Activity DIGSA [17, 26]: 0
Post-emerge Herbicidal Activity AMARE [18, 25]: 30
Post-emerge Herbicidal Activity AMARE [18, 26]: 75
Post-emerge Herbicidal Activity CASOB [19, 25]: 50
Post-emerge Herbicidal Activity CASOB [19, 26]: 85
Post-emerge Herbicidal Activity ABUTH [20, 25]: 100
Post-emerge Herbicidal Activity ABUTH [20, 26]: 100
Post-emerge Herbicidal Activity CORN ([21]; 63 g ai/ha): 5
Post-emerge Herbicidal Activity CORN ([21]; 250 g ai/ha): 65
Post-emerge Herbicidal Activity RICE ([22]; 63 g ai/ha): 30
Post-emerge Herbicidal Activity RICE ([22]; 250 g ai/ha): 70
